How the values were obtained:
[1] = Period 2 human ADME study: whole blood PK after oral solution [14C]-mobocertinib; format: in vivo
Protocol: This was a two-period, open-label, single-dose phase 1 study (NCT03811834) conducted at one clinical site (Celerion, Lincoln, Nebraska, USA) in healthy male participants. The primary objective of Period 1 was to determine the absolute bioavailability of mobocertinib following a single oral dose of 160 mg mobocertinib as capsules and a single intravenous (IV) microdose of 50 µg (~ 2 µCi) [^14C]-mobocertinib. The primary objectives of Period 2 were to (1) assess the cumulative excretion of total radioactivity in urine and feces (mass balance); (2) assess the metabolite profile of mobocertinib in plasma, urine, and feces; and (3) characterize the PK of mobocertinib, AP32960, and AP32914 in plasma, whole blood, and urine, and total radioactivity concentration equivalents in plasma and whole blood following a single oral dose of 160 mg (~ 100 µCi) [^14C]-mobocertinib as an oral solution. A sample size of 6 healthy males was selected without statistical considerations and deemed adequate to meet the study objectives. Furthermore, the sample size was limited based on clinical considerations for human ADME studies and to limit exposure to radioactivity.
After a washout of 8–9 days, participants returned to the clinic for Day − 1 of Period 2. On Day 1 of Period 2, after a fast of ≥ 10 h, participants received a single nominal dose of 160 mg (~ 100 µCi; whole body effective dose of 5.3 mrem for a 70-kg human) [^14C]-mobocertinib as a 70 mL oral solution. The actual doses administered ranged from 161 to 163 mg (92.4 to 93.9 µCi). Participants stayed in the clinic from Day − 1 until a discharge criterion (≥ 80% of the total administered radioactive dose was recovered in urine and feces or excretion of radioactivity in urine and feces combined had declined to ≤ 1% of the total administered dose per day for ≥ 2 consecutive intervals) was met, or up to 10 days postdose. To measure the total radioactivity and concentrations of mobocertinib, AP32960, and AP32914 in whole blood and plasma, 4 blood samples were collected predose, and at 0.5, 1, 2, 3, 4, 5, 6, 8, 12, 24, 36, 48, 72, 96, 120, 144, 168, 192, 216, and 240 h postdose; a fifth blood sample was collected for plasma metabolite profiling at predose and 1, 2, 4, 6, 12, 24, 48, 72, 96, 120, and 168 h postdose. Feces and urine were collected predose (feces within 48 h and urine within 24 h prior to dosing), 0–24 h (urine from 0–12 and 12–24 h), and then at 24-hour intervals up to 240 h postdose or until a discharge criterion was met. […] These 2 participants continued with at-home fecal sample collections. One participant provided fecal samples until Day 13 (264–288 h interval) and one participant provided fecal samples until Day 19 (408–432 h interval), after which they met a discharge criterion.
Plasma, whole blood, and urine samples were assayed for mobocertinib, AP32960, and AP32914 concentrations using liquid chromatography-tandem mass spectrometry (Q2 Solutions, Ithaca, New York, USA). The analytical range for each analyte was 0.250 to 500 ng/mL in whole blood and plasma, and 1.00 to 1000 ng/mL in urine. […] Urine and fecal samples were assayed for total radioactivity following the IV dose of [^14C]-mobocertinib in Period 1, and whole blood, plasma, urine, and fecal samples were assayed for total radioactivity following the oral dose of [^14C]-mobocertinib in Period 2 using liquid scintillation counting (LSC; Celerion, Lincoln, Nebraska, USA; LLOQs: Period 1 urine: 0.115–0.118 ng eq/g, feces: 0.720–0.759 ng eq/g; Period 2 whole blood: 87.3–112 ng eq/g, plasma: 116–132 ng eq/mL, urine: 37.8–46.8 ng eq/g, feces: 110–336 ng eq/g across participants). Urine and fecal samples collected in Period 1 that had total radioactivity concentration equivalents below the LLOQ of the Celerion LSC assay were sent to Pharmaron for measurement by AMS (LLOQ: urine: 0.0000253–0.00111 ng eq/g; feces: 0.000404–0.0278 ng eq/g across participants). The LSC and AMS assays were not cross-validated. […]

[2] = oral doses ranging from 5 to 180 mg; cited from earlier work
[3] = Period 2, oral solution 160 mg [14C]-mobocertinib, whole blood, geometric mean (geometric CV%)
[4] = Period 2, oral solution 160 mg [14C]-mobocertinib, blood-to-plasma, geometric mean (geometric CV%)
[5] = male, human, Period 2, oral solution 160 mg [14C]-mobocertinib, whole blood, geometric mean (geometric CV%)

In the case of `C=CC(=O)Nc1cc(Nc2ncc(C(=O)OC(C)C)c(-c3cn(C)c4ccccc34)n2)c(OC)cc1N(C)CCN(C)C` [Mobocertinib], the “geometric mean AUC∞ lower in whole blood compared to plasma” value ([1]; Period 2, oral solution 160 mg [14C]-mobocertinib) is reported as 24%, the CL/F [1, 3] is reported as 222 (32.6) L/h and the “Molar AUC∞ ratio (analyte vs. total radioactivity)” value [1, 3] is reported as 0.00224 (28.3). For the same compound, the t1/2z [1, 3] was 20.5 (25.4) h, the “B:P Ratio AUC∞” value [1, 4] was 0.763 (17.7) and the “B:P Ratio Cmax” value [1, 4] was 0.794 (17.1). The tmax ([1]; Period 2, single oral solution 160 mg (~100 µCi) [14C]-mobocertinib, whole blood, median (range)) was 5.0 (2.0–6.0) h, the blood plasma ratio ([1]; male, human, whole blood and plasma, Period 2, oral solution 160 mg [14C]-mobocertinib, range over time, read-out: arithmetic mean blood-to-plasma (B:P) concentration ratios) was 0.6 to 1.04 and the AUC(0-inf) [1, 5] was 0.729 µg·h/mL. The AUC(0-t) [1, 5] was 0.718 µg·h/mL, the Cmax [1, 5] was 0.0405 µg/mL and the Vd/F ([1]; male, human, Period 2, oral solution 160 mg [14C]-mobocertinib, whole blood, geometric mean (geometric CV%), read-out: Vz/F) was 6550 L. The “median time to maximum observed concentration (tmax)” value [2] was 4 h.

Reference: publication PMC11327196, “A phase 1 study to assess the absolute bioavailability, mass balance, pharmacokinetics, metabolism, and excretion of [^14C]-mobocertinib, an oral inhibitor of EGFR exon 20 insertion mutations, in healthy participants” (Investigational New Drugs, 2024)
